Holding throughout (experiment): NCI tumour cell line growth inhibition, 48 h
Assay [1] concerns A549 NSCLC.
For assay [2], the system named is ACHN renal.
The test system of assay [3] is HT29 colon.
For assay [4], the system named is OVCAR-3 ovarian.
The test system of assay [5] is PC-3 prostate.
The test system of assay [6] is SK-MEL-28 melanoma.
The subject of assay [7] is SNB-19 CNS.
For assay [8], the system named is SR leukemia.
The subject of assay [9] is TK-10 renal.
In assay [10] the test system is UACC-257 melanoma.

Where “and” joins values, the source holds several entries; their conditions need not be identical. Identical values can stand only once.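 Interpolation was linear, between the two tested concentrations surrounding the appropriate level; five concentrations were tested over 48 hours in 96-well plates. GI50 = concentration required for 50% inhibition of growth. The concentration for full growth arrest is given as TGI.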 Some results are limits rather than exact numbers.

Turning to `Clc1ccc(N/N=C/c2ccccn2)nc1`, the GI50 in assay [1] was 0.518 µM; in assay [2] it was 0.379 µM; in assay [3], 0.574 µM; in assay [4] it was 0.295 µM; in assay [5], 0.578 µM; in assay [6], 0.598 µM. Also, the GI50 in assay [7] is 0.674 µM; in [8], 0.339 µM; in [9], 0.442 µM; in [10], 0.636 µM. Moreover, the TGI in assay [1], in [2], in assay [3], in [4], in assay [5] and in [6] was above 100 µM in each case. In addition, the TGI was above 100 µM in [7], above 52.8 µM in assay [8], above 100 µM in [9] and above 23.6 µM in assay [10].
With `Cc1nc2ccc(N=Nc3c(O)ccc4ccccc34)cc2[nH]1`, the TGI was above 78.7 µM in assay [1]; above 57.2 µM in assay [2]; above 67.2 µM in [3]; above 56.2 µM in [4]; 48.1 µM in assay [5]; above 100 µM in [6]. In addition, the TGI was above 100 µM in assay [7], 55.4 µM in assay [8], above 100 µM in assay [9] and above 63.5 µM in assay [10].
Turning to `O=[N+]([O-])c1ccccc1S(=O)(=O)c1ccccc1[N+](=O)[O-]`, the TGI was above 56.2 µM in assay [1]; above 100 µM in assay [2]; above 100 µM in assay [3]; above 100 µM in assay [4]; above 100 µM in assay [5]; above 100 µM in assay [6]. Also, the TGI is above 97.7 µM in [7], above 100 µM in [8], above 56.2 µM in assay [9] and above 100 µM in assay [10].
Take `COc1ccc(Nc2nc(NCc3ccccc3)c3ccccc3n2)cc1`: the GI50 in assay [1] is 3.78 µM; in [2], 3.38 µM; in [3], 3.48 µM; in assay [4], 2.35 µM; in assay [5], 2.87 µM; in assay [6], 2.03 µM. Besides, the GI50 is 9.72 µM in [7], 2.19 µM in [8], 8.45 µM in [9] and 3.82 µM in assay [10]. In addition, the TGI was determined as 16.5 µM in [1]; 14.1 µM in assay [2]; 11.1 µM in assay [3]; 5.73 µM in assay [4]; 12.6 µM in assay [5]; 4.1 µM in [6]. Moreover, the TGI in assay [7] worked out at 24.1 µM; in assay [8], 6.01 µM; in assay [9], 22 µM; in assay [10] it was 13.8 µM.
Take `Nc1cccc(-c2nc3sccn3c2-c2ccnc(NCCCNS(=O)(=O)c3ccc(C(F)(F)F)cc3)n2)c1`: the GI50 in assay [1] is 4.1 µM; in [2], 3.34 µM; in [3], 2.85 µM; in assay [4], 3.87 µM; in assay [5], 2.41 µM; in assay [6], 5.07 µM. Also, the GI50 is 8.33 µM in [7], 3.84 µM in assay [8], 11.1 µM in [9] and 5.27 µM in [10]. For the same molecule, the TGI worked out at 87.4 µM in [1]; 27.1 µM in assay [2]; 13.7 µM in assay [3]; 23.4 µM in assay [4]; 11.9 µM in [5]; 26.7 µM in assay [6]. Besides, the TGI in assay [7] was above 100 µM; in [8], 43.9 µM; in assay [9], above 100 µM; in assay [10] it was 50.6 µM.
In the case of `O=C(O)c1ccc([N+](=O)[O-])c(P(=O)(O)O)c1`, the TGI in assay [1], in [2], in assay [3], in assay [4], in assay [5] and in assay [6] was above 100 µM in each case. Also, the TGI in assay [7], in assay [8], in [9] and in [10] was above 100 µM each time.
Regarding `CCNC(=O)Nc1ccc(-c2nc3c(c(N4CCOC[C@@H]4C)n2)CCN(C2COC2)C3)cc1`, the GI50 is 0.354 µM and 0.384 µM in assay [1]; 0.285 µM and 0.395 µM in assay [2]; 0.587 µM and 0.409 µM in [3]; 0.355 µM and 0.229 µM in assay [4]; 0.166 µM and 0.106 µM in assay [5]; 0.199 µM and 0.157 µM in [6]. In addition, the GI50 was 0.303 µM and 0.45 µM in [7]; 0.439 µM and 0.416 µM in assay [8]; 0.195 µM and 0.128 µM in [9]; 0.232 µM and 0.287 µM in assay [10]. Besides, the TGI in [1] is above 100 µM; in assay [2], above 56.2 µM; in assay [3], above 100 µM; in assay [4], above 69.5 µM; in [6] it was 5.39 µM and 2.24 µM; in assay [7], above 21.6 µM. Moreover, the TGI is above 100 µM in assay [8]; 3.86 µM and 3.13 µM in assay [9]; 2.74 µM and 3.92 µM in assay [10].
In the case of `Cc1nc(NC(=O)COc2cccc(/C=C3\COc4ccccc4C3=O)c2)sc1C`, the GI50 was 3.7 µM in assay [1]; 1.85 µM in assay [2]; 1.89 µM in [3]; 1.83 µM in assay [4]; 1.76 µM in [5]; 1.79 µM in assay [6]. Moreover, the GI50 was 3.38 µM in [7], 0.872 µM in assay [8], 2.31 µM in assay [9] and 2.88 µM in assay [10]. The TGI in assay [1] was 12.4 µM; in [2], 3.77 µM; in [3], 4.14 µM; in assay [4], 3.27 µM; in assay [5], 4.05 µM; in assay [6], 3.32 µM. Further, the TGI in [7] was 13.6 µM; in [8] it was above 100 µM; in assay [9], 4.08 µM; in [10], 8.13 µM.
As for `Oc1ccc(Cl)cc1Cc1cc(Cl)cc(Cc2cc(Cl)ccc2O)c1O`, the TGI stood at 10.6 µM in assay [1]; 7.64 µM in assay [2]; 10.4 µM in [3]; 11 µM in assay [4]; 7.7 µM in assay [5]; 14.6 µM in assay [6]. The TGI came to 14.6 µM in assay [7], 11.6 µM in [8], 9.17 µM in [9] and 5.18 µM in [10].
